Reference: US9320735B2, “Myeloid derived suppressor cell inhibiting agents” (Colorado State University Research Foundation, priority 2010, dated 2016)
Where two headings read alike, the source gives them in different places.

Assays:
CCR2 [1] = biological target: T1, CCR2 (Homo sapiens, UniProt P41597); settings: bind or taxis not given; read-out: CCR2 antagonist potency; cited from earlier work
CCR2 [2] = biological target: T1, CCR2; settings: read-out: CCR2 IC(50) bind; cited from earlier work
CCR2 [3] = biological target: T2, CCR2 (Mus musculus, UniProt P51683); test: Antibody titers to ovalbumin after CLDC/ovalbumin vaccination with RS102895 (FIG. 33); type: in vivo, mice; settings: 5 mg/kg 1 day before, same day, 1 day after
T2 construct: endogenous in cells
Description: FIG. 33. Effects of co-administration of RS102895 (small molecule inhibitor, Tocris Bioscience), on antibody responses following vaccination via two different modes of administration i.p. (intraperitoneally) or SQ (subcutaneous). Mice were vaccinated SQ with standard vaccine adjuvant (CLDC) and 5 ug ovalbumin, and boosted 10 days later. The first group of mice (n=4 per group) received the vaccine only (cross-hatch bar). A second group of mice was vaccinated and also treated 1 day before, on the same day, and 1 day after with 5 mg/kg of the CCR2 antagonist RS102895 (horizontal line bar), administered i.p. A third group of mice was vaccinated and also treated 1 day before, on the same day, and 1 day after with 5 mg/kg of the CCR2 antagonist RS102895, administered s.c. at the site of vaccination (vertical line bar). Antibody titers to ovalbumin were determined 2 weeks after the boost and plotted as endpoint dilution titers for all animals in all groups. […]
Mice were vaccinated subcutaneous (s.c.) with standard vaccine adjuvant (CLDC) (Cationic liposome-DNA complexes) and 5 ug ovalbumin and boosted 10 days later. […] Antibody titers to ova were determined 2 weeks after the boost and plotted as endpoint dilution titers. […]

CCR2 [4] = biological target: T2, CCR2; test: IFN-γ release by spleen cells of vaccinated mice treated with RS102895 (FIG. 34); type: in vivo
Description: FIG. 34. Effects of co-administration of RS102895 (small molecule inhibitor, Tocris BioSciences), on spleen lymphocyte production of IFN-γ from vaccinated animals (T cell response). Mice were vaccinated s.c. with standard vaccine adjuvant (CLDC) and 5 ug ovalbumin and boosted 10 days later. A first group of mice (n=4 per group) received the vaccine only (cross-hatch). A second group of mice was vaccinated and also treated 1 day before, on the same day, and 1 day after with 5 mg/kg of the CCR2 antagonist RS102895, administered i.p. (horizontal line bar). A third group of mice was vaccinated and also treated 1 day before, on the same day, and 1 day after with 5 mg/kg of the CCR2 antagonist RS102895, administered s.q. at the site of vaccination (vertical line bar). The mice were sacrificed 2 weeks after the booster vaccination and spleen cells were incubated in vitro with ovalbumin (50 ug/ml) for 72 hours. Release of […] into the supernatants was determined by ELISA.
Mice were vaccinated s.c. with standard vaccine adjuvant (CLDC) and 5 ug ovalbumin and boosted 10 days later. One group of mice (n=4 per group) received the vaccine only. A second group of mice was vaccinated and also treated 1 day before, on the same day, and 1 day after with 5 mg/kg of the CCR2 antagonist RS102895, administered i.p. A third group of mice was vaccinated and also treated 1 day before, on the same day, and 1 day after with 5 mg/kg of the CCR2 antagonist RS102895, administered s.c. at the site of vaccination. The mice were sacrificed 2 weeks after the booster vaccination and spleen cells were incubated in vitro with ovalbumin (50 ug/ml) for 72 hours and release of IFN-γ into the supernatants was determined by ELISA. […] The data from this study is presented at FIG. 34.

human recombinant CCR2b = biological target: T3, human recombinant CCR2b (Homo sapiens, UniProt P41597); settings: read-out: IC50 for inhibition of human recombinant CCR2b receptor; cited from earlier work
T3 sequence (P41597 1-360 isoform P41597-2): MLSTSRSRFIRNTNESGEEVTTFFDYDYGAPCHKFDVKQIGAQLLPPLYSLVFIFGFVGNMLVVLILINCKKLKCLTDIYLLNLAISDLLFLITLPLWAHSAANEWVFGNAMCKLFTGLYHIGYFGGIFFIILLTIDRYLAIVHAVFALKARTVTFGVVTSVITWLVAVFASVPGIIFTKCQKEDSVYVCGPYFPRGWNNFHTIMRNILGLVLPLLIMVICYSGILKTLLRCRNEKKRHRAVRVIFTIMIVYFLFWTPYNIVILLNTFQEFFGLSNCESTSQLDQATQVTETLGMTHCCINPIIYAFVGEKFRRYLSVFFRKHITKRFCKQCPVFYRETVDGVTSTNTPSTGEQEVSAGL

human recombinant CCR1 = biological target: T4, human recombinant CCR1 (Homo sapiens, UniProt P32246); settings: read-out: IC50 for inhibition of human recombinant CCR1 receptor; cited from earlier work
T4 sequence (P32246 1-355): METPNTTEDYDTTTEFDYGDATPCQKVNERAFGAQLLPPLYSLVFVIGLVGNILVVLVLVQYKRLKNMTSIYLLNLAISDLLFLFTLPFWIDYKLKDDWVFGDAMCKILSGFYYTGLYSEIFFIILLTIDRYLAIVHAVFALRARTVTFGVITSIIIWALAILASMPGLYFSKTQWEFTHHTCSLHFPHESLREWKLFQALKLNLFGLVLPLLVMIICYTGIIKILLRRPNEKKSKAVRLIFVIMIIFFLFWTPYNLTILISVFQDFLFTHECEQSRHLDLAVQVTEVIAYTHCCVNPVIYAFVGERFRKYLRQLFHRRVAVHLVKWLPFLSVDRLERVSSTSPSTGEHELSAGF

[5] = system: MCP-1-stimulated calcium influx; settings: read-out: IC50, block of MCP-1-stimulated calcium influx; cited from earlier work
[6] = system: MCP-1-stimulated chemotaxis; settings: read-out: IC50, block of MCP-1-stimulated chemotaxis; cited from earlier work
α1A receptor = biological target: T5, α1A receptor (Homo sapiens, UniProt P35348); settings: cited from earlier work
T5 sequence (P35348 1-466): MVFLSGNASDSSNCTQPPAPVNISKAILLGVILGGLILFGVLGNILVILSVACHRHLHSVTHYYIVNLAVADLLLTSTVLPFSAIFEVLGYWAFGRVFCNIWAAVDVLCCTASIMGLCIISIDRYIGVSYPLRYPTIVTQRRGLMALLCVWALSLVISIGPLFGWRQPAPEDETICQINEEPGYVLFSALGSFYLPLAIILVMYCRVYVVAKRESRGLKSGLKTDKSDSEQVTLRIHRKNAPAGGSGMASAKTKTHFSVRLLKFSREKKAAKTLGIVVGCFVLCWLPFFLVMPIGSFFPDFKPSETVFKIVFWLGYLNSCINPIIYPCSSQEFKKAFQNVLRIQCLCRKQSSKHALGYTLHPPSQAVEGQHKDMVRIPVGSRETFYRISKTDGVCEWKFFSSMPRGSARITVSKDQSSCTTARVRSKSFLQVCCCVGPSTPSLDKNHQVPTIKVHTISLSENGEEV

α1D receptor = biological target: T6, α1D receptor (Homo sapiens, UniProt P25100); settings: cited from earlier work
T6 sequence (P25100 1-572): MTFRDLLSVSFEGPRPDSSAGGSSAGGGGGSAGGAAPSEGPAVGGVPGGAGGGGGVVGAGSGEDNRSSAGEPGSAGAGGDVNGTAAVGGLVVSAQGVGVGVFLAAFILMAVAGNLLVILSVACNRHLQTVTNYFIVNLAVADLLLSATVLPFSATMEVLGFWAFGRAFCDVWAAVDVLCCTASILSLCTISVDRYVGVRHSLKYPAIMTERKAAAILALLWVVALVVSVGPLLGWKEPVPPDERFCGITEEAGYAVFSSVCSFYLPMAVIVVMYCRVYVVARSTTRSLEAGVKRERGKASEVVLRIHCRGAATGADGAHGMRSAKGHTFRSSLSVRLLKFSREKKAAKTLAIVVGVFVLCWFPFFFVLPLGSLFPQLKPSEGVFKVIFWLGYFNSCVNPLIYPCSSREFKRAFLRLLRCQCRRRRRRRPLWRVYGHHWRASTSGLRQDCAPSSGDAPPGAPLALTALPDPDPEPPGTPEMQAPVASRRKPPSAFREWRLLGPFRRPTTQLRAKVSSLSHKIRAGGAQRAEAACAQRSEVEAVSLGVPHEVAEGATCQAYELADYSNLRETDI

5-HT1A receptor = settings: cited from earlier work

T2 sequence (P51683 whole entry): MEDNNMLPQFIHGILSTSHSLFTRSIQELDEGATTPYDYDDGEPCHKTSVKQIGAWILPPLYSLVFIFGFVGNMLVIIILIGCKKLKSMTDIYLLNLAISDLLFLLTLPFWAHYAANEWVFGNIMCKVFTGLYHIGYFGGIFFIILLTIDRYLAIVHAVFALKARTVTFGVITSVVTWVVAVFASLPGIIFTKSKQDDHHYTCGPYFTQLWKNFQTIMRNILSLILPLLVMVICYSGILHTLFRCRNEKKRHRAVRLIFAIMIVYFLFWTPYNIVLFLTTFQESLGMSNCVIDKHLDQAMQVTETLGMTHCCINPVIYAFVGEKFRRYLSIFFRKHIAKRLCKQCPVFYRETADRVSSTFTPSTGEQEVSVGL
T1 sequence (P41597 whole entry, species assumed): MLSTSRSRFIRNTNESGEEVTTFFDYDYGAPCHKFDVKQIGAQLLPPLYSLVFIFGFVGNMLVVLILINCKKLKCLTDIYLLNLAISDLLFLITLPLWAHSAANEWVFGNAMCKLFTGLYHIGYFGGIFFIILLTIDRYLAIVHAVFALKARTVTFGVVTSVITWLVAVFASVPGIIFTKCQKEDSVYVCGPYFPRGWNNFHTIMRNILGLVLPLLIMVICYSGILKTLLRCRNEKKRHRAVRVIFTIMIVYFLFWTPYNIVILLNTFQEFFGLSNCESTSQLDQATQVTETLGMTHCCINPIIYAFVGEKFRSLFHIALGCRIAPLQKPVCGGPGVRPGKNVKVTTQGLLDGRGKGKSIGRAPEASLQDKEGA

## O=C(CNC(=O)c1ccccc1)NC1CCN(Cc2ccccc2)C1 (stereo not drawn) [3-Aminopyrrolidines]
CCR2 [1]
  IC50: 3 nM

## CN(CCN1CCCCC1)c1ccc(-c2nc3cc(Sc4ccc(Cl)c(Cl)c4)ccc3[nH]2)cc1 [Benzimidazoles]
CCR2 [2]
  IC50: 200 to 300 nM

## Cl.O=C1Nc2ccccc2C2(CCN(CCc3ccc(C(F)(F)F)cc3)CC2)O1 [RS102895]
CCR2 [3]; either route
  antibody titers to ova relative to vaccine alone: ≥ 2 ×
CCR2 [3]; i.p. or s.c., 2 weeks after boost
  antibody titers to ovalbumin vs vaccine alone: significantly higher antibody titers
CCR2 [4]; 5 mg/kg SQ at site of vaccination, ovalbumin 50 ug/ml 72 hours, without CCR2 antagonist about 450
  IFN-γ production by spleen cells: about 1,400 pg/ml
CCR2 [4]; 5 mg/kg i.p., ovalbumin 50 ug/ml 72 hours, without CCR2 antagonist about 450
  IFN-γ production by spleen lymphocytes: about 2,300 pg/ml
CCR2 [4]; 5 mg/kg, either route
  IFN-γ production vs vaccinated without RS102895: significantly higher amounts of IFN-γ
Human recombinant CCR2b
  IC50: 360 nM
Human recombinant CCR1
  IC50: 17800 nM
[5]
  IC50: 32 nM
[6]
  IC50: 1700 nM
α1A receptor
  inhibition of α1A receptor: inhibits
α1D receptor
  inhibition of α1D receptor: inhibits
5-HT1A receptor
  inhibition of 5-HT1A receptor: inhibits

## O=C(/C=C/c1ccc(Cl)c(Cl)c1)NC1CCC(CN2C3CCC2CC(c2c[nH]c4ccc(O)cc24)C3)CC1 (stereo not drawn) [SB-380732]
CCR2 [2]
  IC50: 50 nM
